Test results taken from patent publication US20240254119A1 (THIRD HARMONIC BIO, INC., priority 2022, published 2024).

Columns and labels:
wtKIT [1] = molecular target: T1, wtKIT (Homo sapiens, UniProt P10721); test: HTRF biochemical assay, wtKIT (phosphorylation of a peptide substrate); details: Table 4
T1 construct: 1888289AM in the reaction mixtures
Procedure, shortened: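 wtKIT (5.0 nM) phosphorylating 1 µM FAM-labelled peptide with 400 µM ATP and 10 mM MnCl2 in 100 mM HEPES pH 7.5, 1% DMSO, 3 h at 25 °C. EDTA quench; phosphopeptide detected with anti-phosphotyrosine antibody by HTRF. Enzyme titrated for 10-20% substrate conversion.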

wtKIT [2] = molecular target: T1, wtKIT; test: Caliper biochemical assay, wtKIT; details: Table 6, read-out: KIT Biochemical IC50 avg
Protocol: Enzyme, substrate, and cofactors (ATP and Mn^2+) are combined in a well of a microtiter plate and incubated for 3 hours at 25° C. At the end of the incubation, the reaction is quenched by the addition of an EDTA-containing buffer. Substrate and product are separated electrophoretically using the microfluidic-based LabChip 3000 Drug Discovery System from Caliper Life Sciences* and quantitated by fluorescence intensity.
The substrate used in the CSF-1R and PDGFRα assay is FAM-[…]-CONH2 (FAM is carboxyfluorescein). Peptide should be >95% purity. The substrate for the KIT assay is FAM-[…]-NH2.
• 1. To a well of a 384-well plate add 5 μL of 2× enzyme buffer (or control) • 2. Add 100 nL of 100× compound. • 3. Add 5 μL of 2× substrate buffer. • 4. Incubate plate at 25° C. for 3 hours. • 5. Add 10 uL of […]. • 6. Read plate LabChip 3000 Drug Discovery System
• 3 hours at 25° C. where 100% Inhibitor: No enzyme.
• 100 mM HEPES, pH 7.5 0.1% BSA • 0.01% Triton X-100 • 1 mM DTT • 10 mM MnCl2 • 10 μM Sodium Orthovanadate • 10 μM Beta-Glycerophosphate • 400 μM ATP • 1% DMSO (from compound) • 1 μM FAM-[…]-CONH2 5.0 nM wtKIT Enzyme (1888289AM)* • *Specific activity may vary from lot to lot. Enzyme concentration may need to be adjusted to yield 10-20% conversion of substrate to product.

Kinetic solubility assay = type: physicochemical; details: kinetic solubility, 50 mM PB (pH 7.4), shaken 24 hours at RT
Protocol: 10 μL of 10 mM in DMSO of test article and control compounds was added into lower chambers of whatman miniuniprep vials, respectively. 490 μL of 50 mM PB (pH 7.4) was then added into lower chambers of the whatman miniuniprep vials, respectively. […] Miniuniprep vials were shaken for 24 hours at RT at the speed of 800 rpm, centrifuged 20 minutes (eg. 4000 rpm) and the filtrates were analyzed by UPLC-UV/HPLC-UV system to calculate the concentration with standard curve.
Filter Membrane: Miniuniprep (PTFE Filter Media with Polypropylene Housing) Cat. No. UN203NPUORG, GE Halthcare Whatman.

[3] = molecular target: T2, BCRP (BCRP-MDCKII monolayer) (Homo sapiens, UniProt Q9UNQ0); test: MDCKII-BCRP bidirectional transport assay; type: in vitro ADME
T2 construct: host or cells: MDCKII (canine kidney) cells
T2 sequence (Q9UNQ0 1-655): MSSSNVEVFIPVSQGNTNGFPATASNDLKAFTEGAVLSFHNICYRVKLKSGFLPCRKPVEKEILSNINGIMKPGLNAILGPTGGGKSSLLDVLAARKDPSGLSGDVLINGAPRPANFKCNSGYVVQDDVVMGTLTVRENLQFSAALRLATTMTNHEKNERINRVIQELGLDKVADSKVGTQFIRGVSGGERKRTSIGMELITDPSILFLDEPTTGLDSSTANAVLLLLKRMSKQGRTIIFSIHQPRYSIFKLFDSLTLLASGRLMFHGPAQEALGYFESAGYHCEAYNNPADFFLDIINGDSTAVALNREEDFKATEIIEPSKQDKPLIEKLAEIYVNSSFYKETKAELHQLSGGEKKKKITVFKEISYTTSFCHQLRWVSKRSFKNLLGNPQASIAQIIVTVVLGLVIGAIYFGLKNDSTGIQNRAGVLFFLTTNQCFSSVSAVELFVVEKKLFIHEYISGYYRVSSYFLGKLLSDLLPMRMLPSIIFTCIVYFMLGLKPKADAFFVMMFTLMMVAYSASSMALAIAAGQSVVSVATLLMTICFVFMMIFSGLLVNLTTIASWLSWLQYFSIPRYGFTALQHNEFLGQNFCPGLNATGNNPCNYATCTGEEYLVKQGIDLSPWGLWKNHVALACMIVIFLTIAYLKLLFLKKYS
Protocol: Exemplary compounds were tested for cell permeability in Caco-2, MDCKII-MDR1 and MDCKII-BCRP cell lines with efflux transporter engagement inferred from the efflux ratios determined. Procedures and results are described below. […] This feature of certain compounds is in part due to efflux transporter engagement. See, for instance, exemplary such compounds included in data tables below.
The reference compound Teriflunomide and test compounds are tested in the bidirectional assay. Test compound and reference compounds incubations were tested in duplicates.
The transport assay can be performed between days 12 to day 15 using ready to use PreadyPort™ BCRP-MDCKII monolayer in 96 well plate.
The medium was aspirated from the apical and basal compartments and 75 and 235 μL assay buffer was added to each of the 96 wells of apical and basal compartments of the PreadyPort™ plate.
The plates were pre-incubated for 15 min at 37° C. with 5% CO2 in humidified atmosphere. After preincubation the assay buffer was removed from the apical and basal inserts of the plate.
In apical to basolateral (A→B) transport, 75 μL of test or reference compound working solution to apical inserts and 235 μL of blank assay buffer were added to the corresponding basal compartments.
In basolateral to apical transport, 235 μL of test or reference compound working solution to the basal compartments and 75 μL of blank assay buffer solution were added to corresponding apical inserts.
The sandwich plate was incubated for 120 min in incubator at 5% CO2 and 37° C.
After incubation, 60 μL was transferred from receiver and donor compartments to collection plate.
For donor and C0 samples 20-fold dilution was accomplished by mixing 60 μL of collected sample with 1140 μL of transport buffer and from that solution aliquot 60 μL transfer Both receiver and donor samples were processed by adding […] of acetonitrile containing internal standard (60 μL of sample+240 μL of acetonitrile containing glyburide as internal standard, 125 ng/mL) and vortexing the samples. The compound concentration was measured in all samples using respective calibration standards by LC-MS/MS.
Calculate the Papp and recovery using the given formula:
[formula] [formula] • Where: dQ/dt=Permeability rate in μM/see • C0=Initial concentration in μM • A=Membrane surface area (0.33 cm^2) • V=Volume of receiver chamber • Cend, a=concentration in acceptor well at end of incubation • Cend, d=concentration in donor well at end of incubation • CHBSS=loading concentration measured in HBSS

T1 sequence (P10721 26-976): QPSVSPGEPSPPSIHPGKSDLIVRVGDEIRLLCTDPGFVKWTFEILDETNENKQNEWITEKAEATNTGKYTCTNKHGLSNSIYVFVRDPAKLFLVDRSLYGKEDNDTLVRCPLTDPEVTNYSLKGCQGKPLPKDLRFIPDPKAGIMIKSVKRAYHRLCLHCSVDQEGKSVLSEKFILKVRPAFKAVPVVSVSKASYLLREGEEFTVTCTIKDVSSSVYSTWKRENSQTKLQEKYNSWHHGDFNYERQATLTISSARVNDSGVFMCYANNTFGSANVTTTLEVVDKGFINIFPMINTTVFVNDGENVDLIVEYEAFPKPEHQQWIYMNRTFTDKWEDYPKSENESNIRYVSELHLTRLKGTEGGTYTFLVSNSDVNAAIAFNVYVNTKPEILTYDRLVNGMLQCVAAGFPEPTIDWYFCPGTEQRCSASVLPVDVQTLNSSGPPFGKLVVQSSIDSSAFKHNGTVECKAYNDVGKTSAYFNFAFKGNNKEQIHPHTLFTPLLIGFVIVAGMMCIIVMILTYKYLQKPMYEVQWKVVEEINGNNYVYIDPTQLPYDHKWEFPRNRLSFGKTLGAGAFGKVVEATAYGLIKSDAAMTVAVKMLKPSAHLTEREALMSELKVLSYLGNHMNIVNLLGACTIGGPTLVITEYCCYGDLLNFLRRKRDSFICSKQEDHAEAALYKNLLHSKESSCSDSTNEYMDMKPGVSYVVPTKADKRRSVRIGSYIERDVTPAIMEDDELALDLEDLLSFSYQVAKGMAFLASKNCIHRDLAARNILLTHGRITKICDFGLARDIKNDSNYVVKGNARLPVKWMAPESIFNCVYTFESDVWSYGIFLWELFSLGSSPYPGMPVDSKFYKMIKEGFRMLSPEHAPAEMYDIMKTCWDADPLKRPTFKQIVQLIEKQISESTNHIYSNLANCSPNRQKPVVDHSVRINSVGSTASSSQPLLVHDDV

| Compound | IC50 (wtKIT [1]) [nM] | IC50 (wtKIT [2]) [nM] | Solubility (μM) (Kinetic solubility assay) | MDCK-BCRP: Efflux Ratio [3] | MDCK-BCRP: Papp A-B ([3]; apical to basolateral) |
| --- | --- | --- | --- | --- | --- |
| Cc1ccc(-c2noc([C@H]3C[C@@H]3F)n2)cc1NC(=O)c1cnc2cc(C(N)=O)ccn12 [Compound I-207] | ≤ 50 | ≤ 50 | **** (a solubility less than or equal to 2 μM) |  |  |
| COC(=O)N1CC(c2nc(-c3ccc(C)c(NC(=O)c4cnc5ccc(OCCO)cn45)c3)no2)C1 [Compound I-247] | 50 to 500 | ≤ 50 | *** (a solubility greater than 2 μM and less than or equal to 10 μM) |  |  |
| Cc1ccc(-c2noc([C@@H]3CC(=O)N3)n2)cc1NC(=O)c1cnc2ccccn12 (racemic) [Compound I-224] | 50 to 500 | ≤ 50 | * (a solubility greater than 50 μM) |  |  |
| Cc1ccc(-c2noc([C@H]3C[C@@H]3F)n2)cc1NC(=O)c1cnc2ccc(Cl)nn12 [Compound I-289] |  | 50 to 500 | *** (a solubility greater than 2 μM and less than or equal to 10 μM) |  |  |
| Cc1ccc(-c2noc([C@H]3C[C@@H]3F)n2)cc1NC(=O)c1cnc2ccc(Nc3ccc4c(c3)OCCO4)cn12 [Compound I-290] |  | ≤ 50 | *** (a solubility greater than 2 μM and less than or equal to 10 μM) |  |  |
| Cc1nc(-c2ccc(C)c(NC(=O)c3cnc4ccc(N5CCOCC5)cn34)c2)no1 [Compound I-218] | ≤ 50 | ≤ 50 | **** (a solubility less than or equal to 2 μM) |  |  |
| CCNc1ccn2c(C(=O)Nc3cc(-c4noc(C)n4)ccc3C)cnc2c1 [Compound I-229] | ≤ 50 | ≤ 50 | **** (a solubility less than or equal to 2 μM) |  |  |
| Cc1ccc(-c2noc(C3CC3F)n2)cc1NC(=O)c1cnc2ccc(Nc3ccc(OC(F)F)cc3)cn12 (stereo not shown) [Compound I-284] |  | ≤ 50 | *** (a solubility greater than 2 μM and less than or equal to 10 μM) |  |  |
| Cc1nc(-c2ccc(C)c(NC(=O)c3cnc4ccc(N5CCCCC5)cn34)c2)no1 [Compound I-206] | ≤ 50 | ≤ 50 | **** (a solubility less than or equal to 2 μM) |  |  |
| Cc1ccc(-c2noc(C3(C)CCCC3(F)F)n2)cc1NC(=O)c1cnc2ccccn12 (racemic) [Compound I-374] |  | ≤ 50 | **** (a solubility less than or equal to 2 μM) |  |  |
| Cc1ccc(-c2noc([C@H]3C[C@@H]3F)n2)cc1NC(=O)c1cnc2cc(N3CCC(C)CC3)ccn12 [Compound I-303] |  | ≤ 50 | **** (a solubility less than or equal to 2 μM) |  |  |
| Cc1ccc(-c2noc([C@H]3CCN3)n2)cc1NC(=O)c1cnc2cc(C#N)ccn12 [Compound I-244] | 50 to 500 | 50 to 500 | * (a solubility greater than 50 μM) |  |  |
| COc1ccc(Nc2ccn3c(C(=O)Nc4cc(-c5noc([C@H]6C[C@@H]6F)n5)ccc4C)cnc3c2)cc1OC [Compound I-285] |  | ≤ 50 | **** (a solubility less than or equal to 2 μM) |  |  |
| COC(=O)N1CC(c2nc(-c3ccc(C)c(NC(=O)c4cnc5ccc(OCC(C)(C)O)cn45)c3)no2)C1 [Compound I-239] | 50 to 500 | 50 to 500 | ** (a solubility greater than 10 μM and less than or equal to 50 μM) |  |  |
| Cc1ccc(-c2noc(C3CCC3F)n2)cc1NC(=O)c1cnc2ccccn12 (stereo not shown) [Compound I-400] |  |  | **** (a solubility less than or equal to 2 μM) | 1.44 | 11.7 10^−6 cm/s |
| Cc1ccc(-c2noc([C@H]3C[C@@H]3F)n2)cc1NC(=O)c1cnc2cc(NS(=O)(=O)c3c(C)noc3C)ccn12 [Compound I-226] | 50 to 500 | 50 to 500 | * (a solubility greater than 50 μM) |  |  |
| Cc1ccc(-c2noc([C@H]3CC(=O)CN3)n2)cc1NC(=O)c1cnc2ccccn12 [Compound I-223] | 50 to 500 | ≤ 50 |  |  |  |
| Cc1cc(C)cc(Nc2ccn3c(C(=O)Nc4cc(-c5noc([C@H]6C[C@@H]6F)n5)ccc4C)cnc3c2)c1 [Compound I-292] |  | ≤ 50 | *** (a solubility greater than 2 μM and less than or equal to 10 μM) |  |  |
| CC(C)(C)OC(=O)N1CC(c2nc(-c3ccc(Cl)c(NC(=O)c4cnc5ccccn45)c3)no2)C1 [Compound I-333] |  | ≤ 50 | **** (a solubility less than or equal to 2 μM) |  |  |
| Cc1ccc(-c2noc(C3C(C)CC3C)n2)cc1NC(=O)c1cnc2ccccn12 (stereo not shown) [Compound I-315] |  | ≤ 50 | **** (a solubility less than or equal to 2 μM) |  |  |
| Cc1ccc(-c2noc(C3CC3(F)F)n2)cc1NC(=O)c1cnc2cc(COCCO)ccn12 (stereo not shown) [I-58] |  |  | ** (a solubility greater than 10 μM and less than or equal to 50 μM) |  |  |
| COc1ccn2c(C(=O)Nc3cc(-c4nc(C)no4)ccc3Cl)cnc2c1 [I-37] |  |  | **** (a solubility less than or equal to 2 μM) |  |  |
| Cc1noc(-c2ccc3ncc(C(=O)Nc4cc(-c5noc([C@H]6C[C@@H]6F)n5)ccc4C)n3c2)n1 [I-2] |  |  | **** (a solubility less than or equal to 2 μM) |  |  |
| Cc1ccc(-c2noc([C@H]3C[C@@H]3F)n2)cc1NC(=O)c1cnc2ccc(S(C)(=O)=O)cn12 [I-18] |  |  | **** (a solubility less than or equal to 2 μM) |  |  |
| COc1ccn2c(C(=O)Nc3cccc(-c4noc(CC5CC5(F)F)n4)c3F)cnc2c1 (single isomer, unassigned) [I-54] |  |  | **** (a solubility less than or equal to 2 μM) |  |  |
